{"source": "patent US20210198365A1", "about": "“COMBINATION PRODUCT FOR THE TREATMENT OF CANCER” (Debiopharm International S.A., priority 2017, published 2021)", "key": {"MBT-2 bladder cancer": {"test_system": "MBT-2 bladder cancer", "experiment": "Subcutaneous MBT-2 mouse bladder cancer syngeneic model", "assay_type": "in vivo", "conditions": "anti-PD-L1 5 mg/kg i.p. bi-weekly; Debio 1143 100 mg/kg p.o. QD1-5; alone or combined, 3 weeks", "procedure": "FIG. 3: Anti-tumor activity of Debio 1143, anti-PD-L1 antibody, and their combination in the subcutaneous MBT-2 mouse bladder cancer syngeneic model.\nThe anti-tumor activity of an anti-PD-L1 antibody (5 mg/kg BIW i.p.; clone 10F.9G2, BioXcell) was tested either alone or in combination with Debio 1143 (100 mg/kg QD1-5 p.o.) in MBT-2 immunocompetent syngeneic mouse model of bladder cancer in C3H/HeNCrl mice over 3 weeks (see, for example, Shimazui et al., 2013. Int J Oncol. 42(2):543-8). Each mouse was inoculated subcutaneously at the right flank region with MBT-2 tumor cells (2×10^5) in 0.1 ml of PBS for tumor development. The treatments were started when the mean tumor size reached 101 mm^3 (n=8/group)."}, "human T cells (PBMCs)": {"test_system": "human T cells (PBMCs)", "experiment": "Ex vivo T-cell activation in human PBMCs upon CD3/CD28 stimulation", "assay_type": "cell-based", "conditions": "10 μM Debio 1143 added to anti-CD3/CD28 stimulation, 24 hours, cytometric analysis", "procedure": "FIG. 1: Ex vivo T-cell activation in human peripheral blood mononuclear cells (PBMCs) upon CD3/CD28 stimulation and Debio 1143 treatment. N=1 healthy donor; values represent means of triplicates±SD. To test the effect of Debio 1143 on activation of human T cells, PBMCs freshly isolated from healthy human donors were stimulated ex vivo with anti-CD3/CD28 antibodies for 24 in the presence of 10 μM Debio 1143, or control treatments without stimulation and Debio 1143 incubation."}}}
{"compound": "CN[C@@H](C)C(=O)N[C@H]1CN(C(=O)CC(C)C)CC[C@H]2CC[C@@H](C(=O)NC(c3ccccc3)c3ccccc3)N2C1=O", "note": "[Debio 1143, (5S,8S,10aR)-N-benzhydryl-5-((S)-2-(methylamino)propanamido)-3-(3-methylbutanoyl)-6-oxodecahydropyrrolo[1,2-a][1,5]diazocine-8-carboxamide]", "values": [{"measurement": "anti-tumor activity", "setting": "MBT-2 bladder cancer", "value": "weak anti-tumor activity"}, {"measurement": "T cell activation (percentage of IFNγ+ CD4+ and IFNγ+ CD8+ T-cells)", "setting": "human T cells (PBMCs)", "value": "significant increase in T cell activation"}]}
